{"source": "patent US20030013690A1", "about": "“Increasing phosphorus uptake from the gut of dairy cows by supplementing 1alpha-hydroxylated vitamin D compounds” (priority 2001, published 2003)", "format_in_all_cases": "in vivo", "key": {"lactating dairy cows [1]": {"system": "lactating dairy cows", "assay": "Dairy cow efficacy trial: milk yield and milk composition", "description": "(§1) Eight multiparous lactating dairy cows (about 150 days in milk at start of the experiment) were blocked into two groups according to milk yield. Cows in each block were assigned randomly to four different treatments. The experimental design was a 4×4 Latin Square. Each period was four weeks in length. The first three weeks were used as an adaptation period, and measurements were taken during the last week of each period.\n(§2) The four treatments were:\n(§3) 1) High P diet. Dietary P at 0.47% (DM basis)\n(§4) 2) Diet 1 plus 1-α-OHD3 (75 μg/cow/day)\n(§5) 3) Low P diet. Dietary P at 0.35% (DM basis)\n(§6) 4) Diet 3 plus 1-α-OHD3 (75 μg/cow/day).\n(§7) Cows were weighed two days in a row before the trial started and two days in a row when it finished. Daily milk weights were recorded. All cows were injected with bovine somatotropin (Posilac®). Blood samples were collected on the last day of weeks 1, 2, and 3 of each period. During week 4, blood samples were obtained on each of the last three days. Blood was obtained 5 hours after feeding from the coccygeal vein or artery in a gel and clot co-activator vacutainer. Samples were centrifuged the next day to separate the serum. Inorganic phosphorus and calcium analyses were performed on serum samples by Marshfield Laboratories, Marshfield, Wis.\n(§8) During the last two days of each period, six urine samples were collected at 8 am, 4 pm, and 11 pm on the first day and 12 noon, 8 pm, and 6 am on the second day. Urine samples were then composited for phosphorus, calcium, and creatinine analysis. Creatinine was measured to enable an estimate of urine output. Milk samples were obtained during four days of each period. The milk sample was split; one-half was mixed with a preservative, and the other half was refrigerated without a preservative. The samples with preservative were analyzed for milk composition by Wisconsin Ag Source Milk Analysis Laboratory (Menomonie, Wis.), and the samples without preservative were composited according to milk yield and analyzed for mineral composition in the Soil and Plant Analysis Laboratory, Department of Soil Science, University of Wisconsin-Madison."}, "lactating dairy cows [2]": {"system": "lactating dairy cows", "assay": "Dairy cow efficacy trial: P and Ca concentrations in blood serum", "description": "as §1, §2, §3, §4, §5, §6, §7"}, "lactating dairy cows [3]": {"system": "lactating dairy cows", "assay": "Dairy cow efficacy trial: feed intake, fecal P excretion, P utilization", "description": "as §1, §2, §3, §4, §5, §6\nThe diets (Table 1) were fed ad libitum as a total mixed ration once daily. The cows were housed in individual tie stalls. Daily feed offered and refused was recorded for individual cows. Feed refusals were restricted to 10% of intake on an as-fed basis. Daily samples of silage and refusals were composited weekly for chemical analysis. Samples of individual feed ingredients were collected once weekly. The dry matter content of feed ingredients was determined by oven drying at 60° C. for 48 hr. Diet formulations were adjusted weekly, if necessary, to account for changes in dry matter content of diet ingredients. All of the feed ingredients were analyzed for chemical composition. Alfalfa and corn silage were analyzed weekly for neutral detergent fiber (NDF), acid detergent fiber (ADF), and crude protein (CP). High moisture ear corn (HMEC), soybean meal (SBM), roasted soybean meal (RSB), and blood meal (BM) were composited every four weeks (one sample per period) and analyzed for CP.\nFeed DM digestibility was determined using Yb as an external marker. A Yb solution, prepared by dissolving 2.24 g of YbCl3 (1 g of Yb) in 30 ml of water was sprayed onto 500 g of alfalfa silage (DM basis). The Yb-marked alfalfa silage was mixed into the total mixed ration to give 40 mg of Yb/kg of dietary DM. The total mixed ration labeled with Yb was fed for nine days. During the last two days of Yb feeding (last two days of each period), eight fecal grab samples were collected from each cow at 7 am, 12 noon, 6 pm, and 11 pm on the first day and at 9 am, 3 pm, 9 pm, and 5 am on the second day. Fecal samples were dried at 60° C. for 72 h and ground through a 2-mm Wiley mill screen. Fecal samples were dry-ashed in duplicate (Combs and Satter, 1992). During the last four days of each period, feed refusals for each cow were collected and composited into one sample per cow per period. These samples were dry-ashed in the same way as feces, and analyzed for Yb. Concentrations of Yb (ppm) in feed, feed refusals, and fecal samples were determined by direct current plasma spectroscopy [(Combs and Satter, 1992); Spectra Metrics, Inc., subsidiary of Beckman Instruments, Inc., Andover, Mass.]. The DM digestibility (percentage) for individual cows was calculated as follows: DM digestibility (%)=(1-concentration of Yb in DM consumed/average concentration of Yb in each cow's fecal samples)100. Digestibility of dietary P in different treatments was calculated using P input-output data."}, "lactating dairy cows [4]": {"system": "lactating dairy cows", "assay": "Dairy cow efficacy trial: P and Ca concentrations in urine", "description": "as §1, §2, §3, §4, §5, §6, §8"}, "[5]": {"conditions": "treatment 2: high P diet (0.47% P) plus 75 μg/cow/day"}, "[6]": {"conditions": "treatment 4: low P diet (0.35% P) plus 75 μg/cow/day"}, "[7]": {"conditions": "both the high- and low-P treatments, highly significant"}}}
{"smiles": "C=C1/C(=C\\C=C2/CCC[C@]3(C)[C@@H]([C@H](C)CCCC(C)C)CC[C@@H]23)C[C@@H](O)C[C@@H]1O", "note": "[1-α-OHD3, 1α-hydroxyvitamin D3]", "values": [{"measurement": "Effect on milk production", "setting": "lactating dairy cows [1]; supplementation of 75 μg", "value": "unaffected"}, {"measurement": "Milk yield", "setting": "lactating dairy cows [1]; [5]", "value": 36.9, "unit": "kg/day"}, {"measurement": "Milk yield", "setting": "lactating dairy cows [1]; [6]", "value": 37.6, "unit": "kg/day"}, {"measurement": "Effect on concentration of Ca in blood serum", "setting": "lactating dairy cows [2]; [7]", "value": "increase"}, {"measurement": "Effect on concentration of P in blood serum", "setting": "lactating dairy cows [2]; [7]", "value": "increase"}, {"measurement": "Blood serum calcium", "setting": "lactating dairy cows [2]; [5]", "value": 10.32, "unit": "mg/dL"}, {"measurement": "Blood serum phosphorus", "setting": "lactating dairy cows [2]; [5]", "value": 8.77, "unit": "mg/dL"}, {"measurement": "Blood serum calcium", "setting": "lactating dairy cows [2]; [6]", "value": 10.14, "unit": "mg/dL"}, {"measurement": "Blood serum phosphorus", "setting": "lactating dairy cows [2]; [6]", "value": 7.63, "unit": "mg/dL"}, {"measurement": "Reduction in fecal P excretion due to supplementation", "setting": "lactating dairy cows [3]; 75 μg/cow/day", "value": 14, "unit": "%"}, {"measurement": "Reduction of phosphorus excretion in manure", "setting": "lactating dairy cows [3]; both the high- and low-P treatments, 75 μg/cow/day", "value": "about 10 g per day"}, {"measurement": "Effect on fecal P excretion", "setting": "lactating dairy cows [3]; daily inclusion of 75 μg in the cows' diets", "value": "reduced"}, {"measurement": "Effect on P uptake from the gut", "setting": "lactating dairy cows [3]; evidenced by decreased fecal P and increased serum P", "value": "increased"}, {"measurement": "Fecal DM P", "setting": "lactating dairy cows [3]; [5]", "value": 0.99, "unit": "%"}, {"measurement": "Fecal P", "setting": "lactating dairy cows [3]; [5]", "value": 71.3, "unit": "g/day"}, {"measurement": "Milk and Fecal P", "setting": "lactating dairy cows [3]; [5]", "value": 109.5, "unit": "g/day"}, {"measurement": "Fecal DM P", "setting": "lactating dairy cows [3]; [6]", "value": 0.77, "unit": "%"}, {"measurement": "Fecal P", "setting": "lactating dairy cows [3]; [6]", "value": 55.4, "unit": "g/day"}, {"measurement": "Milk and Fecal P", "setting": "lactating dairy cows [3]; [6]", "value": 93.8, "unit": "g/day"}, {"measurement": "Effect on calcium excretion via urine", "setting": "lactating dairy cows [4]; 75 μg/cow/day", "value": "increased"}, {"measurement": "Urinary P as share of dietary P intake", "setting": "lactating dairy cows [4]; high-P treatment, at 5.15 mg P per dl of urine", "value": "about 2%"}, {"measurement": "Urine calcium", "setting": "lactating dairy cows [4]; [5]", "value": 12.03, "unit": "mg/dL"}, {"measurement": "Urine phosphorus", "setting": "lactating dairy cows [4]; [5]", "value": 5.15, "unit": "mg/dL"}, {"measurement": "Urine calcium", "setting": "lactating dairy cows [4]; [6]", "value": 15.46, "unit": "mg/dL"}, {"measurement": "Urine phosphorus", "setting": "lactating dairy cows [4]; [6]", "value": 0.40, "unit": "mg/dL"}]}
